From publication PMC10401651, “Characterization of Uranyl (UO2^2+) Ion Binding to Amyloid Beta (Aβ) Peptides: Effects on Aβ Structure and Aggregation” (ACS Chemical Neuroscience, 2023) come the findings set out here.

Values joined by “and” are separate entries in the source; they are usually repeats but may differ in a detail not shown here. Identical values can stand only once. Like-named read-outs stand apart in the source and are kept apart here.

The target of assay [1] is T1, Aβ40 (H6A, H13A, and H14A) triple-mutant, Aβ40 (NoHis) (Homo sapiens, UniProt P05067, H677A/H684A/H685A).
T1 construct: the Aβ40 (H6A, H13A, and H14A) triple-mutant; purchased AlexoTech AB (Umeå, Sweden); host or cells: recombinant
T1 sequence (P05067 672-711 H677A/H684A/H685A): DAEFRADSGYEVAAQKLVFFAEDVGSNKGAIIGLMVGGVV
The assay can be described thus: Binding affinity via Tyr10 fluorescence quenching, Aβ40 (NoHis) mutant. To be noted: 20 μM Aβ40 (NoHis). An excerpt: Synthetic lyophilized wt Aβ (1–42) peptides, abbreviated as Aβ42, with the primary sequence DAEFR5HDSGY10EVHHQ15KLVFF20AEDVG25SNKGA30IIGLM35VGGVV40IA, were purchased from JPT Peptide Technologies (Germany). Two recombinant Aβ variants were purchased as lyophilized powder from AlexoTech AB (Umeå, Sweden), namely, the Aβ40 peptide and the Aβ40 (H6A, H13A, and H14A) triple-mutant, which in the following is referred to as the Aβ40 (NoHis) mutant. The Aβ40 peptide was also purchased uniformly single-labeled with ^15N isotopes. All Aβ40 peptide variants were stored at −80 °C until use. Before measurements, they were dissolved in 10 mM NaOH and then sonicated in an ice bath for 5 min to avoid pre-formed aggregates. The samples were then diluted in either sodium phosphate buffer at pH 7.3 or in MES buffer at pH 7.3 or 5.1. The peptide concentrations were initially estimated from the weight of the dry powder and then more accurately determined with a NanoDrop spectrophotometer.
Fluorescence measurements were conducted on a Jobin Yvon Horiba Fluorolog 3 fluorescence spectrophotometer (Longjumeau, France) using a quartz cuvette with a 4 mm path length. The fluorescence emission intensity of samples containing 20 μM Aβ peptides in 20 mM MES buffer, at either pH 7.3 or pH 5.5 and without or with 50 mM SDS detergent present, was measured at 305 nm (excitation wavelength 276 nm) at 20 °C. […] Apparent dissociation constants (KD^App) were determined by fitting the plots to eq 2 [drawing 2] 2 where I0 is the initial fluorescence intensity with no added UO2^2+ ions, I∞ is the steady-state intensity at the end of the titration, [Ab] is the protein concentration, and [U] is the concentration of added UO2^2+ ions.[121],[160]

Assay [2] concerns the target T2, Aβ40 peptides (Homo sapiens, UniProt P05067).
T2 construct: namely, the Aβ40 peptide; purchased AlexoTech AB (Umeå, Sweden); host or cells: recombinant
The assay can be described thus: CD spectroscopy on the Aβ40 secondary structure. On the procedure: The CD spectra for Aβ40 monomers in aqueous buffer display spectra with minima around 196–198 nm (Figure 5B,E), which is typical for a random coil conformation. […] The difference spectrum is not conclusive but might represent β-sheet conformation (Figure 5C).
CD measurements were carried out on a Chirascan CD spectrometer from Applied Photophysics Ltd. (U.K). Samples containing 600 μL of 10 μM Aβ40 peptide in 20 mM phosphate buffer, at either pH 7.3 or pH 5.1, were placed in a quartz cuvette with a 2 mm pathlength. CD spectra were recorded at 20 °C between 192 and 250 nm using steps of 0.5 nm and a sampling time of 5 s per data point. […] All data was processed with the Chirascan Pro-Data v.4.4.1 software (Applied Photophysics Ltd., U.K.), including smoothing with a ten-point smoothing filter. 50 mM SDS detergent was added to some of the samples as SDS micelles constitute a simple model for bio-membranes.[125],[126] Aβ peptides are known to insert their central and C-terminal segments as α-helices into SDS micelles, while the N-terminal Aβ segment remains unstructured outside the micelle surface.[19],[125] Because the critical micelle concentration for SDS is 8.2 mM in water at 25 °C,[152] micelles clearly formed under the experimental conditions. With approximately 62–65 SDS molecules per micelle,[156] 50 mM SDS yields a micelle concentration slightly below 1 mM, i.e., much higher than the concentration of Aβ peptides. This means that each micelle will generally contain no more than one Aβ peptide, which effectively prevents Aβ aggregation and ensures that uranyl interactions are with monomeric Aβ peptides. […] Even though 50 mM SDS would efficiently denature most folded proteins, such denaturing effects are not relevant for small intrinsically disordered peptides such as Aβ (in monomeric form).

T2 sequence (P05067 672-711 limits assumed): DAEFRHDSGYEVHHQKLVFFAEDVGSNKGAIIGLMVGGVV

In the case of `CC(=O)[O-].CC(=O)[O-].[O]=[U+2]=[O]` [uranyl ions, uranyl acetate], the Kd in assay [1] (pH 7.3 + 50 mM SDS, read-out: KD^App, single replicates) is 119 µM and 124 µM and 116 µM; in assay [1] (pH 7.3 + 50 mM SDS, three replicates, read-out: KD^App, average), 120 ± 4 µM; in assay [1] (pH 7.3, 20 mM MES, read-out: KD^App, single replicates), 62 µM and 86 µM and 79 µM; in assay [1] (pH 7.3, 20 mM MES, three replicates, read-out: KD^App, average), 76 ± 11 µM. Moreover, the “structural transition of Aβ40 (CD)” value in assay [2] (50 mM SDS micelles, pH 5.1, 10 μM Aβ40) is on record as “structural conversion from α-helix to a random coil”; in assay [2] (aqueous buffer pH 5.1, 10 μM Aβ40, 2-256 μM uranyl acetate, 20 °C), “conversion from random coil to β-sheet”. Further, in assay [2] (50 mM SDS micelles, pH 7.3, 10 μM Aβ40), the “changes in the Aβ40 CD spectrum” value is “no changes at all”. For the same compound, the “structural effect on Aβ40 (CD), compared with pH 5.1” value in assay [2] (aqueous buffer pH 7.3, 10 μM Aβ40, 2-256 μM uranyl acetate, 20 °C) was “weaker”.
